Assay results from publication PMC3157426 (PLoS ONE, 2011).
Where “and” joins values, the source holds several entries; their conditions need not be identical. Equal entries are not always repeated. Where two headings read alike, the source gives them in different places.

Experiments:
[1] = molecular target: clade 1 H5N1 virus from Vietnam N1 NA (Influenza A virus, UniProt Q6DPL2); format: biochemical, avian influenza H5N1 clade 1 (Vietnam)
[2] = molecular target: A/Mississippi/03/01 H1N1 wild type NA (Influenza A virus, UniProt Q289M4); format: biochemical, influenza virus A/Mississippi/03/01 H1N1
[3] = molecular target: H1N1 pandemic influenza virus A/Swine/Shepparton/2009 NA (Influenza A virus, UniProt I6NQT4); assay: biochemical; format: biochemical, influenza virus A/Swine/Shepparton/2009 pandemic H1N1
[4] = molecular target: clade 2 H5N1 virus from Indonesia N1 NA (Influenza A virus, UniProt Q6R2G6); format: biochemical, avian influenza H5N1 clade 2 (Indonesia)
[5] = molecular target: A/Fukui/45/04 H3N2 wild type NA (Influenza A virus, UniProt C0IZY2); format: biochemical, influenza virus A/Fukui/45/04 H3N2
[6] = molecular target: B/Perth/211/01 influenza B wild type NA (Influenza B virus, UniProt Q3S340); format: biochemical, influenza B virus B/Perth/211/01
N2 NA = conditions: cited from earlier work
[7] = read-out: IC50 at 10 min, 30' Pre
[8] = read-out: IC50 at 10 min, No pre
[9] = read-out: final IC50 after 60 min, 30' pre
[10] = read-out: final IC50 after 60 min, No pre
[11] = read-out: IC50 on relative slope, Rates time interval 30-40
[12] = read-out: IC50 on relative slope, Rates time interval 40-50
[13] = read-out: IC50 on relative slope, Rates time interval 50-60

**Q.** Which “binding phenotype (slow or fast binding)” value [1] does the source give for `CC(=O)N[C@H]1[C@H]([C@H](O)[C@H](O)CO)OC(C(=O)O)=C[C@@H]1O` [DANA, 2-deoxy,2,3-dehydro N-acetyl neuraminic acid] here?
**A.** fast binding

**Q.** And the “binding phenotype (slow or fast binding)” value [2]?
**A.** fast binding

**Q.** And the “binding phenotype (slow or fast binding)” value [3]?
**A.** fast binding

**Q.** And the “binding phenotype (slow or fast binding)” value [4]?
**A.** fast binding

**Q.** What about the “binding phenotype (slow or fast binding)” value [5] of the same compound?
**A.** fast binding

**Q.** And the “binding phenotype (slow or fast binding)” value [6]?
**A.** fast binding

**Q.** What does the source list for `CCC(CC)[C@H](NC(C)=O)[C@@H]1[C@H](O)[C@@H](C(=O)O)C[C@H]1N=C(N)N` [Peramivir, peramivir]?
**A.** 10'/60 (ratio of IC50s), No pre [1]: 6.6; 60'/10 (ratio of IC50s), 30' Pre [1]: 1.3; No pre/pre (ratio of 60 min IC50s) [1]: 21.0; IC50 [1, 7]: 0.2 nM; IC50 [1, 8]: 40.9 nM; IC50 [1, 9]: 0.3 nM; IC50 [1, 10]: 6.2 nM; 10'/60 (ratio of IC50s), No pre [2]: 6.5; 60'/10 (ratio of IC50s), 30' Pre [2]: 1.4; No pre/pre (ratio of 60 min IC50s) [2]: 8.2; IC50 [2, 7]: 0.3 nM; IC50 [2, 8]: 20.2 nM; IC50 [2, 9]: 0.4 nM; IC50 [2, 10]: 3.1 nM; 10'/60 (ratio of IC50s), No pre [3]: 5.1; 60'/10 (ratio of IC50s), 30' Pre [3]: 1.5; No pre/pre (ratio of 60 min IC50s) [3]: 7.1; IC50 [3, 7]: 0.2 nM; IC50 [3, 8]: 10.1 nM; IC50 [3, 9]: 0.3 nM; IC50 [3, 10]: 2 nM; 10'/60 (ratio of IC50s), No pre [4]: 7.0; 60'/10 (ratio of IC50s), 30' Pre [4]: 1.4; No pre/pre (ratio of 60 min IC50s) [4]: 9.3; IC50 [4, 7]: 0.4 nM; IC50 [4, 8]: 37.7 nM; IC50 [4, 9]: 0.6 nM; IC50 [4, 10]: 5.4 nM; 10'/60 (ratio of IC50s), No pre [5]: 8.7; 60'/10 (ratio of IC50s), 30' Pre [5]: 1.3; No pre/pre (ratio of 60 min IC50s) [5]: 9.0; IC50 [5, 7]: 1 nM; IC50 [5, 8]: 103 nM; IC50 [5, 9]: 1.3 nM; IC50 [5, 10]: 11.9 nM; 10'/60 (ratio of IC50s), No pre [6]: 9.3; 60'/10 (ratio of IC50s), 30' Pre [6]: 1.5; No pre/pre (ratio of 60 min IC50s) [6]: 9.8; IC50 [6, 7]: 1.9 nM; IC50 [6, 8]: 259 nM; IC50 [6, 9]: 2.8 nM; IC50 [6, 10]: 27.8 nM

**Q.** Which “variation of the apparent Ki depending on the incubation conditions” value (N2 NA) does the source give for `CC(=O)N[C@H]1[C@H]([C@H](O)[C@H](O)CO)OC(C(=O)O)=C[C@@H]1N=C(N)N` [Zanamivir, zanamivir] here?
**A.** 10,000 fold

**Q.** What about the IC50 ([3]; IC50 at 10 min, 30' Pre) of the same compound?
**A.** 0.5 nM

**Q.** What about the IC50 ([3]; IC50 at 10 min, No pre) of the same compound?
**A.** 29.5 nM

**Q.** What about the IC50 ([3]; final IC50 after 60 min, 30' pre) of the same compound?
**A.** 1.4 nM

**Q.** And the IC50 ([3]; final IC50 after 60 min, No pre)?
**A.** 5.8 nM

**Q.** Which IC50 [2, 7] does the source give for oseltamivir carboxylate here?
**A.** 0.5 nM

**Q.** And the IC50 [2, 8]?
**A.** 12.2 nM

**Q.** And the IC50 ([2]; read-out: IC50 on relative slope, Rates time interval 20-30)?
**A.** 6.2 nM and 3.9 nM

**Q.** What about the IC50 [2, 11] of the same compound?
**A.** 6.7 nM and 4.6 nM

**Q.** And the IC50 [2, 12]?
**A.** 6.8 nM and 5 nM

**Q.** What about the IC50 [2, 13] of the same compound?
**A.** 7.9 nM and 5.6 nM

**Q.** And the IC50 [2, 9]?
**A.** 3.1 nM

**Q.** And the IC50 [2, 10]?
**A.** 7.3 nM

**Q.** And the IC50 [3, 7]?
**A.** 0.5 nM

**Q.** What about the IC50 [3, 8] of the same compound?
**A.** 15.8 nM

**Q.** And the IC50 [3, 9]?
**A.** 5.1 nM

**Q.** What about the IC50 [3, 10] of the same compound?
**A.** 6.8 nM

**Q.** What about the IC50 [4, 7] of the same compound?
**A.** 0.9 nM

**Q.** And the IC50 [4, 8]?
**A.** 28.3 nM

**Q.** What about the IC50 [4, 9] of the same compound?
**A.** 19.6 nM

**Q.** And the IC50 [4, 10]?
**A.** 21.4 nM

**Q.** And the “binding phenotype (slow or fast binding)” value [5]?
**A.** slow binding phenotype

**Q.** What about the IC50 [5, 7] of the same compound?
**A.** 0.5 nM

**Q.** What about the IC50 [5, 8] of the same compound?
**A.** 30.4 nM

**Q.** What about the IC50 [5, 11] of the same compound?
**A.** 3.8 nM and 2.5 nM

**Q.** What about the IC50 [5, 12] of the same compound?
**A.** 3.8 nM and 3.3 nM

**Q.** What about the IC50 [5, 13] of the same compound?
**A.** 3.4 nM

**Q.** What about the IC50 [5, 9] of the same compound?
**A.** 1.7 nM

**Q.** And the IC50 [5, 10]?
**A.** 5.3 nM
